In PubChem BioAssay (NCI):
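96-well plates; 48 h exposure; 5 concentrations. Endpoints by linear interpolation between flanking doses. Not reached: highest tested concentration assigned. GI50 is the concentration that inhibits growth by half. TGI is the concentration that stops growth completely.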

Columns and labels:
Assay in all cases: DTP human tumour cell line panel, 48 h
MALME-3M melanoma = test system: MALME-3M melanoma
OVCAR-5 ovarian = test system: OVCAR-5 ovarian
LOX IMVI melanoma = test system: LOX IMVI melanoma
DU-145 prostate = test system: DU-145 prostate
K-562 leukemia = test system: K-562 leukemia
UACC-257 melanoma = test system: UACC-257 melanoma
HOP-62 NSCLC = test system: HOP-62 NSCLC
786-0 renal = test system: 786-0 renal
CCRF-CEM leukemia = test system: CCRF-CEM leukemia
HT29 colon = test system: HT29 colon
OVCAR-4 ovarian = test system: OVCAR-4 ovarian
HCT-116 colon = test system: HCT-116 colon
SNB-75 CNS = test system: SNB-75 CNS
T-47D breast = test system: T-47D breast
SK-OV-3 ovarian = test system: SK-OV-3 ovarian
SK-MEL-2 melanoma = test system: SK-MEL-2 melanoma
IGROV1 ovarian = test system: IGROV1 ovarian
SF-295 CNS = test system: SF-295 CNS
SW-620 colon = test system: SW-620 colon
M14 melanoma = test system: M14 melanoma
A498 renal = test system: A498 renal
UACC-62 melanoma = test system: UACC-62 melanoma
MOLT-4 leukemia = test system: MOLT-4 leukemia
MDA-MB-231 breast = test system: MDA-MB-231 breast
UO-31 renal = test system: UO-31 renal
MCF7 breast = test system: MCF7 breast
COLO 205 colon = test system: COLO 205 colon
MDA-N = test system: MDA-N
U251 CNS = test system: U251 CNS
SF-539 CNS = test system: SF-539 CNS
SF-268 CNS = test system: SF-268 CNS
TK-10 renal = test system: TK-10 renal
NCI/ADR-RES ovarian = test system: NCI/ADR-RES ovarian
NCI-H460 lung = test system: NCI-H460 lung
EKVX NSCLC = test system: EKVX NSCLC
SK-MEL-28 melanoma = test system: SK-MEL-28 melanoma
PC-3 prostate = test system: PC-3 prostate
SN12C renal = test system: SN12C renal
OVCAR-8 ovarian = test system: OVCAR-8 ovarian
MDA-MB-435 = test system: MDA-MB-435
RPMI-8226 leukemia = test system: RPMI-8226 leukemia
CAKI-1 renal = test system: CAKI-1 renal
SR leukemia = test system: SR leukemia
ACHN renal = test system: ACHN renal
OVCAR-3 ovarian = test system: OVCAR-3 ovarian
SNB-19 CNS = test system: SNB-19 CNS
HOP-92 NSCLC = test system: HOP-92 NSCLC
HCT-15 colon = test system: HCT-15 colon
HCC-2998 colon = test system: HCC-2998 colon
NCI-H23 lung = test system: NCI-H23 lung
NCI-H522 lung = test system: NCI-H522 lung
HL-60(TB) leukemia = test system: HL-60(TB) leukemia
NCI-H226 lung = test system: NCI-H226 lung
RXF 393 renal = test system: RXF 393 renal
KM12 colon = test system: KM12 colon
HS 578T breast = test system: HS 578T breast
SK-MEL-5 melanoma = test system: SK-MEL-5 melanoma
A549 NSCLC = test system: A549 NSCLC
BT-549 breast = test system: BT-549 breast

With `CCCCN(CCCC)CCC(O)c1cc2c(Cl)cc(Cl)cc2c2cc(C(F)(F)F)ccc12` (stereo not given) the TGI (MALME-3M melanoma) was 30 µM, the TGI (OVCAR-5 ovarian) was 26 µM and the TGI (LOX IMVI melanoma) was 21.9 µM. For the same compound, the TGI (DU-145 prostate) was 22 µM, the TGI (K-562 leukemia) was 22.4 µM and the TGI (UACC-257 melanoma) was 29.6 µM. For the same compound, the TGI (HOP-62 NSCLC) was 21.9 µM, the TGI (786-0 renal) was 25.7 µM and the TGI (CCRF-CEM leukemia) was 29 µM. It also gave a TGI (HT29 colon) of 34.9 µM, a TGI (OVCAR-4 ovarian) of 28.5 µM and a TGI (HCT-116 colon) of 25.2 µM. It also gave a TGI (SNB-75 CNS) of 25.3 µM, a TGI (T-47D breast) of 28.9 µM and a TGI (SK-OV-3 ovarian) of 26.9 µM. The TGI (SK-MEL-2 melanoma) was 30.2 µM, the TGI (IGROV1 ovarian) was 26.5 µM and the TGI (SF-295 CNS) was 25.4 µM. The TGI (SW-620 colon) was 25.7 µM, the TGI (M14 melanoma) was 23.6 µM and the TGI (A498 renal) was 13.8 µM. The TGI (UACC-62 melanoma) was 29.9 µM, the TGI (MOLT-4 leukemia) was 29.3 µM and the TGI (MDA-MB-231 breast) was 15.3 µM. The TGI (UO-31 renal) was 17.4 µM, the TGI (MCF7 breast) was 24.9 µM and the TGI (COLO 205 colon) was 23.6 µM. The TGI (MDA-N) was 26 µM, the TGI (U251 CNS) was 31.7 µM and the TGI (SF-539 CNS) was 30.1 µM. The TGI (SF-268 CNS) was 24.4 µM, the TGI (TK-10 renal) was 27.6 µM and the TGI (NCI/ADR-RES ovarian) was 26.1 µM. The TGI (NCI-H460 lung) was 25.5 µM, the TGI (EKVX NSCLC) was 29.1 µM and the TGI (SK-MEL-28 melanoma) was 33.1 µM. It also gave a TGI (PC-3 prostate) of 22.2 µM, a TGI (SN12C renal) of 20 µM and a TGI (OVCAR-8 ovarian) of 27.5 µM. The TGI (MDA-MB-435) was 28.7 µM, the TGI (RPMI-8226 leukemia) was 28.4 µM and the TGI (CAKI-1 renal) was 29.3 µM. The TGI (SR leukemia) was 28.9 µM, the TGI (ACHN renal) was 25.6 µM and the TGI (OVCAR-3 ovarian) was 23.7 µM. For the same compound, the TGI (SNB-19 CNS) was 40.6 µM, the TGI (HOP-92 NSCLC) was 10.6 µM and the TGI (HCT-15 colon) was 19.1 µM. The TGI (HCC-2998 colon) was 24.2 µM, the TGI (NCI-H23 lung) was 30.6 µM and the TGI (NCI-H522 lung) was 32.9 µM. It also gave a TGI (HL-60(TB) leukemia) of 21.8 µM.
For `CCCCC(=O)N/N=C/c1c(O)ccc2ccccc12`, the GI50 (MALME-3M melanoma) was 3.06 µM, the TGI (MALME-3M melanoma) was 20.3 µM and the GI50 (OVCAR-5 ovarian) was 6.97 µM. The TGI (OVCAR-5 ovarian) was > 100 µM, the GI50 (LOX IMVI melanoma) was 1.15 µM and the TGI (LOX IMVI melanoma) was > 31.8 µM. The GI50 (DU-145 prostate) was 2.7 µM, the TGI (DU-145 prostate) was > 100 µM and the GI50 (K-562 leukemia) was 1.89 µM. For the same compound, the TGI (K-562 leukemia) was > 100 µM, the GI50 (UACC-257 melanoma) was 3 µM and the TGI (UACC-257 melanoma) was > 24.6 µM. The GI50 (NCI-H226 lung) was 13.7 µM, the TGI (NCI-H226 lung) was > 70.4 µM and the GI50 (HOP-62 NSCLC) was 7.95 µM. For the same compound, the TGI (HOP-62 NSCLC) was > 100 µM, the GI50 (786-0 renal) was 3.65 µM and the TGI (786-0 renal) was > 59.2 µM. It also gave a GI50 (RXF 393 renal) of 2.01 µM, a TGI (RXF 393 renal) of 15.9 µM and a GI50 (CCRF-CEM leukemia) of 0.267 µM. For the same compound, the TGI (CCRF-CEM leukemia) was 1.28 µM, the GI50 (HT29 colon) was 27.5 µM and the TGI (HT29 colon) was > 100 µM. For the same compound, the GI50 (OVCAR-4 ovarian) was 1.47 µM, the TGI (OVCAR-4 ovarian) was > 33.2 µM and the GI50 (KM12 colon) was 2.28 µM. For the same compound, the TGI (KM12 colon) was > 100 µM, the GI50 (HCT-116 colon) was 1.32 µM and the TGI (HCT-116 colon) was > 29.6 µM. For the same compound, the GI50 (SNB-75 CNS) was 1.57 µM, the TGI (SNB-75 CNS) was > 100 µM and the GI50 (T-47D breast) was 3.03 µM. For the same compound, the TGI (T-47D breast) was > 100 µM, the GI50 (SK-OV-3 ovarian) was 3.04 µM and the TGI (SK-OV-3 ovarian) was > 100 µM. The GI50 (SK-MEL-2 melanoma) was 3.67 µM, the TGI (SK-MEL-2 melanoma) was > 23.7 µM and the GI50 (IGROV1 ovarian) was 0.65 µM. It also gave a TGI (IGROV1 ovarian) of 7.12 µM, a GI50 (SF-295 CNS) of 1.83 µM and a TGI (SF-295 CNS) of 16.5 µM. For the same compound, the GI50 (SW-620 colon) was 3.54 µM, the TGI (SW-620 colon) was > 100 µM and the GI50 (M14 melanoma) was 1.82 µM. For the same compound, the TGI (M14 melanoma) was 14.6 µM, the GI50 (HS 578T breast) was 6.54 µM and the TGI (HS 578T breast) was > 100 µM. For the same compound, the GI50 (A498 renal) was 7.71 µM, the TGI (A498 renal) was 44.4 µM and the GI50 (UACC-62 melanoma) was 2.3 µM. It also gave a TGI (UACC-62 melanoma) of 14.2 µM, a GI50 (MOLT-4 leukemia) of 0.349 µM and a GI50 (MDA-MB-231 breast) of 3.51 µM. For the same compound, the TGI (MDA-MB-231 breast) was > 94.8 µM, the GI50 (UO-31 renal) was 1.87 µM and the TGI (UO-31 renal) was 28 µM. The GI50 (MCF7 breast) was 2.09 µM, the TGI (MCF7 breast) was 15.8 µM and the GI50 (COLO 205 colon) was 2.61 µM. The TGI (COLO 205 colon) was > 27.6 µM, the GI50 (U251 CNS) was 1.6 µM and the TGI (U251 CNS) was > 100 µM. For the same compound, the GI50 (SF-539 CNS) was 2.8 µM, the TGI (SF-539 CNS) was > 44.9 µM and the GI50 (SF-268 CNS) was 0.874 µM. For the same compound, the TGI (SF-268 CNS) was > 75 µM, the GI50 (TK-10 renal) was 1.82 µM and the TGI (TK-10 renal) was > 24.3 µM. For the same compound, the GI50 (NCI/ADR-RES ovarian) was 1.68 µM, the TGI (NCI/ADR-RES ovarian) was > 30.2 µM and the GI50 (NCI-H460 lung) was 1.36 µM. For the same compound, the TGI (NCI-H460 lung) was > 100 µM, the GI50 (EKVX NSCLC) was 1.75 µM and the TGI (EKVX NSCLC) was 7.92 µM. It also gave a GI50 (SK-MEL-5 melanoma) of 1.84 µM, a TGI (SK-MEL-5 melanoma) of 11.4 µM and a GI50 (SK-MEL-28 melanoma) of 2.16 µM. The TGI (SK-MEL-28 melanoma) was > 52.2 µM, the GI50 (PC-3 prostate) was 0.953 µM and the TGI (PC-3 prostate) was > 57.5 µM. For the same compound, the GI50 (SN12C renal) was 5.44 µM, the TGI (SN12C renal) was > 100 µM and the GI50 (OVCAR-8 ovarian) was 2.78 µM. The TGI (OVCAR-8 ovarian) was > 100 µM, the GI50 (A549 NSCLC) was 4.47 µM and the TGI (A549 NSCLC) was > 92.1 µM. For the same compound, the GI50 (MDA-MB-435) was 4.37 µM, the TGI (MDA-MB-435) was > 100 µM and the GI50 (RPMI-8226 leukemia) was 0.247 µM. For the same compound, the TGI (RPMI-8226 leukemia) was 1.57 µM, the TGI (CAKI-1 renal) was 2.26 µM and the GI50 (SR leukemia) was 0.45 µM. The TGI (SR leukemia) was 3.57 µM, the GI50 (ACHN renal) was 1.38 µM and the TGI (ACHN renal) was > 88.6 µM. The GI50 (OVCAR-3 ovarian) was 0.423 µM, the TGI (OVCAR-3 ovarian) was 9.37 µM and the GI50 (SNB-19 CNS) was 4.26 µM. The TGI (SNB-19 CNS) was > 100 µM, the GI50 (HOP-92 NSCLC) was 2.01 µM and the TGI (HOP-92 NSCLC) was > 84.5 µM. For the same compound, the GI50 (HCT-15 colon) was 0.532 µM, the TGI (HCT-15 colon) was > 100 µM and the GI50 (HCC-2998 colon) was 3.88 µM. The TGI (HCC-2998 colon) was > 100 µM, the GI50 (NCI-H23 lung) was 4.14 µM and the TGI (NCI-H23 lung) was > 100 µM. For the same compound, the GI50 (BT-549 breast) was 0.537 µM, the TGI (BT-549 breast) was 6.6 µM and the GI50 (NCI-H522 lung) was 1.77 µM. For the same compound, the TGI (NCI-H522 lung) was 10.2 µM and the GI50 (HL-60(TB) leukemia) was 0.452 µM.
